Laboratory results published in the supplement of paper PMC10307832.

Experiments:
Experiment in all cases: relative viability (nuclei count vs DMSO), 5 days (fraction); higher = more cells survive
Imatinib + Luminespib = compound: Cc1ccc(NC(=O)c2ccc(CN3CCN(C)CC3)cc2)cc1Nc1nccc(-c2cccnc2)n1 [Imatinib] + CCNC(=O)c1noc(-c2cc(C(C)C)c(O)cc2O)c1-c1ccc(CN2CCOCC2)cc1 [Luminespib] (partner 0.01 µM)
Outline: (§1)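 One day after seeding in 1536-well plates, lung cancer cell lines were dosed by pin tool. Dosing was either single-drug or a fixed anchor-drug dose plus five library-drug doses (not always all listed) in √10 steps. After 5 days, nuclei were stained in one fix-and-stain step and counted on 4× images, and relative viability is the nuclei count of treated wells over that of vehicle wells, given as the median of duplicate plates.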

Imatinib + OSI-027 = compound: Cc1ccc(NC(=O)c2ccc(CN3CCN(C)CC3)cc2)cc1Nc1nccc(-c2cccnc2)n1 [Imatinib] + COc1cccc2cc(-c3nc([C@H]4CC[C@H](C(=O)O)CC4)n4ncnc(N)c34)[nH]c12 [OSI-027] (partner 0.5 µM)
Outline: as §1

Imatinib + Decitabine = compound: Cc1ccc(NC(=O)c2ccc(CN3CCN(C)CC3)cc2)cc1Nc1nccc(-c2cccnc2)n1 [Imatinib] + Nc1ncn([C@H]2C[C@H](O)[C@@H](CO)O2)c(=O)n1 [Decitabine] (partner 2 µM)
Outline: as §1

Imatinib + AZD7762 = compound: Cc1ccc(NC(=O)c2ccc(CN3CCN(C)CC3)cc2)cc1Nc1nccc(-c2cccnc2)n1 [Imatinib] + NC(=O)Nc1cc(-c2cccc(F)c2)sc1C(=O)N[C@H]1CCCNC1 [AZD7762] (partner 0.2 µM)
Outline: as §1

Row | Cell Line | relative viability (Imatinib + Luminespib; first compound 0.02 µM) | relative viability (Imatinib + Luminespib; first compound 0.06325 µM) | relative viability (Imatinib + Luminespib; first compound 0.2 µM) | relative viability (Imatinib + Luminespib; first compound 0.6325 µM) | relative viability (Imatinib + Luminespib; first compound 2 µM) | relative viability (Imatinib + OSI-027; first compound 0.02 µM) | relative viability (Imatinib + OSI-027; first compound 0.06325 µM) | relative viability (Imatinib + OSI-027; first compound 0.2 µM) | relative viability (Imatinib + OSI-027; first compound 0.6325 µM) | relative viability (Imatinib + OSI-027; first compound 2 µM) | relative viability (Imatinib + Decitabine; first compound 0.02 µM) | relative viability (Imatinib + Decitabine; first compound 0.06325 µM) | relative viability (Imatinib + Decitabine; first compound 0.2 µM) | relative viability (Imatinib + Decitabine; first compound 0.6325 µM) | relative viability (Imatinib + Decitabine; first compound 2 µM) | relative viability (Imatinib + AZD7762; first compound 0.02 µM) | relative viability (Imatinib + AZD7762; first compound 0.06325 µM) | relative viability (Imatinib + AZD7762; first compound 0.2 µM) | relative viability (Imatinib + AZD7762; first compound 0.6325 µM) | relative viability (Imatinib + AZD7762; first compound 2 µM)
1 | NCI-H1650 | 0.189 | 0.2 | 0.184 | 0.192 | 0.193 | 0.629 | 0.481 | 0.39 | 0.544 | 0.512 | 0.476 | 0.367 | 0.42 | 0.371 | 0.425 |  |  |  |  | 
2 | NCI-H322M | 0.987 | 0.868 | 0.826 | 0.873 | 0.826 | 0.624 | 0.544 | 0.553 | 0.522 | 0.52 | 0.751 | 0.692 | 0.661 | 0.655 | 0.756 | 0.565 | 0.673 | 0.529 | 0.608 | 0.586
3 | NCI-H2405 | 0.682 |  | 0.575 | 0.58 | 0.76 | 0.629 |  | 0.645 | 0.592 | 0.641 | 0.707 | 0.636 | 0.848 | 0.724 | 0.722 | 0.813 | 0.791 | 0.706 | 0.635 | 0.651
4 | HCC-78 |  |  |  |  |  | 0.332 | 0.387 | 0.389 | 0.366 | 0.314 | 0.644 | 0.7 | 0.715 | 0.721 | 0.71 | 0.592 | 0.714 |  | 0.636 | 0.58
5 | SK-LU-1 | 0.212 | 0.222 | 0.201 | 0.243 | 0.188 | 0.332 | 0.409 | 0.319 | 0.264 | 0.365 | 0.686 | 0.543 | 0.588 | 0.598 | 0.645 |  |  |  |  | 
6 | COR-L23 | 0.806 | 0.709 | 0.79 | 0.802 | 0.654 | 0.869 | 0.831 | 0.853 | 0.824 | 0.64 | 0.382 | 0.507 | 0.474 | 0.409 | 0.455 |  |  |  |  | 
7 | SW 1573 | 0.23 | 0.348 | 0.293 | 0.26 | 0.233 | 0.708 | 0.24 | 0.685 | 0.573 | 0.548 | 0.646 | 0.4 | 0.575 | 0.471 | 0.437 |  |  |  |  | 
8 | NCI-H1355 |  |  |  |  |  | 0.386 |  | 0.388 | 0.315 | 0.432 | 0.359 |  | 0.35 | 0.345 | 0.35 | 0.988 |  | 0.83 | 0.63 | 0.571
9 | NCI-H1703 |  |  |  |  |  |  |  |  |  |  |  |  |  |  |  | 0.135 |  | 0.103 | 0.124 | 0.114
10 | COR-L 105 | 0.696 |  | 0.844 | 0.632 | 0.732 | 0.771 | 0.739 | 0.65 | 0.653 | 0.685 | 0.709 | 0.694 | 0.675 | 0.563 | 0.655 |  |  |  |  | 
11 | NCI-H1666 | 1.06 | 1.21 |  | 1.18 | 1.03 |  |  |  |  |  | 0.699 | 0.716 | 0.779 | 0.796 | 0.727 | 0.902 | 0.873 | 0.792 | 0.849 | 0.809
12 | NCI-H661 | 0.931 | 1.03 | 1.01 | 0.934 | 0.874 | 0.738 | 0.818 | 0.802 | 0.645 | 0.695 | 0.597 | 0.592 | 0.532 | 0.585 | 0.613 |  |  |  |  | 
13 | NCI-H2023 | 1.04 | 1.03 | 1.07 | 1.17 | 1.1 | 0.524 | 0.303 | 0.426 | 0.314 | 0.334 | 0.228 | 0.252 | 0.24 | 0.22 | 0.223 |  |  |  |  | 
14 | NCI-H2228 | 0.147 |  | 0.126 | 0.12 | 0.152 | 0.755 |  | 0.489 | 0.423 | 0.478 |  |  |  |  |  |  |  |  |  | 
15 | NCI-H520 | 0.21 | 0.236 | 0.23 | 0.189 | 0.198 | 0.214 | 0.255 | 0.242 | 0.224 | 0.273 | 0.531 | 0.514 | 0.532 | 0.508 | 0.487 |  |  |  |  | 
16 | NCI-H1563 | 0.486 | 0.537 | 0.545 | 0.496 | 0.471 | 0.825 | 0.803 | 0.774 | 0.743 | 0.731 |  |  |  |  |  |  |  |  |  | 
17 | HCC-366 |  |  |  |  |  | 1.01 |  | 1.05 | 0.812 | 0.748 | 0.324 | 0.366 | 0.356 | 0.374 | 0.329 | 0.367 | 0.364 | 0.288 | 0.208 | 0.181
18 | CAL-12T | 0.365 |  | 0.363 | 0.397 | 0.198 | 0.714 |  | 0.605 | 0.702 | 0.471 |  |  |  |  |  | 0.692 | 0.724 | 0.637 | 0.699 | 
19 | UMC-11 | 1.19 | 1.22 | 1.04 |  | 0.96 | 0.514 | 0.542 | 0.64 | 0.499 | 0.456 | 0.554 | 0.615 | 0.59 | 0.619 | 0.683 |  |  |  |  | 
